In patent USRE49816E1, “Dipeptides as inhibitors of human immunoproteasomes” (CORNELL UNIVERSITY, priority 2014, dated 2024):
“Also recorded” adds a separate entry of the source. Where two headings read alike, the source gives them in different places. Each block holds one compound with its values, some of them ahead of it.

Legend:
[1] = test system: TNBS-induced colitis; conditions: Watanabe et al.; cited from earlier work
[2] = test system: Karpas cells; assay: Accumulation of poly-ubiquitinylated proteins in Karpas cells (anti-ub blot); format: cell-based, human; conditions: 24 hours treatment
Procedure: FIGS. 5A-C show experimental results relating to SAR studies and target engagement inside the cells. FIG. 5A is a graph showing experimental results relating to inhibition of i-20S β5i and c-20S β5c by selected dipeptides. […] FIG. 5C is an image of an SDS-page gel showing accumulation of poly-ubiquitinylated (ub) proteins. Karpas cells were treated with dipeptides, or with bortezomib as a control, at indicated concentrations for 24 hours, and the poly-ub proteins in the lysates were blotted with anti-ub antibody and visualized with a second antibody directed against the first antibody and tagged with a dye that absorbs infrared light (Odyssey® CLx imaging system, LICOR).

[3] = test system: proteasome inside the Karpas 1106p cells; assay: Cell-based Proteasome-Glo assay after compound removal; set-up: species or system human; conditions: 4 hours, read-out: Proteasome-glo β5-IC50
[4] = test system: Karpas 1106p cells; assay: Cytotoxicity (LD50) against Karpas lymphoma cells; format: cell-based, human; conditions: Table 4
[5] = test system: Karpas 1106p cells; assay: Cytotoxicity (LD50) against Karpas lymphoma cells; format: cell-based, human; conditions: Table 3
Excerpt: Table 3 lists the inhibition kinetic parameters, selectivity index, and calculated log Ps of selected dipeptides.

[6] = test system: TNBS-induced colitis; assay: TNBS-induced colitis in mice
[7] = test system: mouse bone marrow derived macrophages (BMDMs); assay: Cytotoxicity against BMDMs; conditions: concentrations up to 50 μM
[8] = target: hu i-20S β5i-subunit (Homo sapiens, UniProt P20618+P28062); assay: N,C-capped dipeptides IC50, Ac-ANW-AMC fluorescence assay; format: biochemical; conditions: for SI (selectivity index): Hu c-20S over Hu i-20S
[9] = test system: human peripheral blood mononuclear cells; assay: Cytotoxicity against PBMCs; format: cell-based; conditions: concentrations up to 50 μM
[10] = test system: HepG2 human hepatoma cells; assay: Cytotoxicity against HepG2; format: cell-based; conditions: concentrations up to 50 μM
[11] = test system: 4T1 mammary carcinoma; conditions: i.p. daily 6 mg/kg from Day 10, sacrifice Day 20; p<0.05
[12] = test system: mouse bone marrow derived macrophages (BMDMs); assay: Cytokine production in LPS-activated macrophages (ELISA, qPCR); format: cell-based
Procedure: Culture supernatants were harvested 24 hours (h) after LPS stimulation and analyzed for cytokine production by enzyme-linked immunosorbent assay (ELISA). Total RNA was isolated 4 h after LPS stimulation and analyzed by real time quantitative polymerase chain reaction (PCR) for IL-12p35 and IL-12/IL-23p40 genes. Data are expressed relative to levels of glyceraldehyde 3-phosphate dehydrogenase (GAPDH) levels and represent three independent experiments.
The dipeptide compounds and their relative inhibitory results on the βcomponent of the human immunoproteasome (β5i) and constitutive proteasome (β5c) are described in Examples 151 and 152.

[13] = test system: RAW264 GFP-LC3 cells; assay: Autophagy induction in RAW264 GFP-LC3 cells; format: cell-based, mouse; conditions: 10 nM, 37° C. overnight; bafilomycin A 20 nM 4 hours
Procedure: Prior to fixation with 4% paraformaldehyde, the cells were treated with bafilomycin A (20 nM), an inhibitor of the late phase of autophagy, for 4 hours. Fluorescent images were recorded digitally with a multiphoton microscope. […]

[14] = test system: human B-lymphoma cell line; assay: Cytotoxicity against B-lymphoma cell line; format: cell-based; conditions: concentrations up to 50 μM
[15] = test system: mouse i-20S β5i; assay: Predicted inhibition of mouse i-20S β5i over mouse c-20S β5c; format: biochemical; conditions: predicted from sequence identity
[16] = target: hu c-20S β5c-subunit (Homo sapiens, UniProt P20618+P28074); assay: N,C-capped dipeptides IC50, succ-LLVY-AMC fluorescence assay; format: biochemical
[17] = target: hu c-20S β5c (Homo sapiens, UniProt P20618+P28074); assay: Kinetic parameters of oxathiazolones vs hu c-20S β5c; format: biochemical; conditions: Hu20S β5c; from slopes of kobs vs [I]
[18] = target: hu i-20S β5i (Homo sapiens, UniProt P20618+P28062); assay: Kinetic parameters of oxathiazolones vs hu i-20S β5i; format: biochemical; conditions: for kinact: printed value is kinact × 10^3
[19] = test system: mouse bone marrow derived macrophages (BMDMs); conditions: Muchamuel et al. 2009; cited from earlier work

SMILES: CC(=O)N[C@H]1C(O)O[C@H](CO)[C@@H](O)[C@@H]1O[C@H](C)C(=O)N[C@@H](C)C(=O)N[C@H](CCC(=O)O)C(N)=O (mixture of isomers) [MDP, muramyl dipeptide]
protection from colitis [1]: protected mice from colitis

SMILES: CC(C)C[C@H](NC(=O)[C@H](Cc1ccccc1)NC(=O)c1cnccn1)B(O)O [Bortezomib, reference compound]
accumulation of poly-ubiquitinylated proteins [2]: accumulation
IC50 [3]: 0.6 nM
LD50 Karpas [4]: 0.0017 µM

SMILES: CC(C)(C)ONC(=O)C[C@H](NC(=O)CCc1ccccc1)C(=O)N[C@@H](Cc1ccc(F)cc1)C(=O)NCc1cccc2ccccc12 [DPLG-3]
LD50 [5]: 2.04 µM
adverse effects ([6]; I.P. 3-12 mg/kg, TNBS mice): did not cause detectable adverse effects
colitis-induced weight loss ([6]; I.P. at day −1, 1 and 3, 3, 6 and 12 mg/kg, dose-dependent): strongly inhibited colitis-induced weight loss
colitis-induced weight loss / pathogenesis ([6]; one-time i.v. injection (6 mg/kg) at time of TNBS challenge, WT mice): strongly inhibited colitis-associated pathogenesis; also recorded: strongly inhibited colitis-induced weight loss
cytotoxicity [7]: not cytotoxic
mode of inhibition [8]: competitive inhibition
cytotoxicity [9]: not cytotoxic
cytotoxicity [10]: not cytotoxic
accumulation of poly-ubiquitinylated proteins [2]: did not cause accumulation
tumor size and weight [11]: reducing the size and weight
IL-10 production [12]: no significant effects
sensitivity of IL-12 and IL-23 production vs TNF-α (factor) [12]: 10-20
production of IL-12 ([12]; LPS 1 μg/ml, 24 h, ELISA): dose-dependently inhibited
production of IL-12/IL-23p40 ([12]; LPS 1 μg/ml, 24 h, ELISA): dose-dependently inhibited
production of TNF-α ([12]; LPS 1 μg/ml, 24 h, ELISA): dose-dependently inhibited
transcription of P35 and P40 ([12]; mRNA 4 h after LPS, qPCR relative to GAPDH): reduced
IL-6 production ([12]; on its own): dose-dependently induced
induction of autophagy [13]: induces autophagy
IC50 [3]: 110 nM
LD50 Karpas [4]: 2.04 µM
cytotoxicity [14]: not cytotoxic
inhibition of mouse i-20S β5i over mouse c-20S β5c [15]: potently and selectively inhibit

SMILES: COC[C@H](NC(=O)OC(C)(C)C)C(=O)N[C@@H](C)C(=O)NCc1cccc2ccccc12 [DPLG-2032, tert-butyl ((S)-3-methoxy-1-(((S)-1-((naphthalen-1-ylmethyl)amino)-1-oxopropan-2-yl)amino)-1-oxopropan-2-yl)carbamate]
LD50 [5]: 37 µM
IC50 [8]: 77800 nM
IC50 [16]: > 100000 nM
IC50 [3]: > 100000 nM
LD50 Karpas [4]: >100 µM

SMILES: C[C@H](NC(=O)[C@H](CC(=O)NOC(C)(C)C)NC(=O)CCc1ccccc1)C(=O)NCc1cccc2[nH]ccc12 [DPLG-2083, (S)—N^1—((S)-1-(((1H-indol-4-yl)methyl)amino)-1-oxopropan-2-yl)-N^4-(tert-butoxy)-2-(3-phenylpropanam-ido)succinamide]
LD50 [5]: 0.254 µM
IC50 [8]: 25 nM
SI (selectivity index) [8]: 10
IC50 [16]: 240 nM
IC50 [3]: 160 nM
LD50 Karpas [4]: 0.254 µM

SMILES: COC[C@H](NC(=O)[C@H](CC(=O)NOC(C)(C)C)NC(=O)CCc1ccccc1)C(=O)NCc1cccc2ccccc12 [DPLG-2086, (S)—N^4-(tert-butoxy)-N^1—((S)-3-methoxy-1-((naphthalen-1-ylmethyl)amino)-1-oxopropan-2-yl)-2-(3-phenylpropanamido)succinamide]
LD50 [5]: 0.46 µM
accumulation of poly-ubiquitinylated proteins [2]: accumulation of poly-Ub proteins
IC50 [3]: 5 nM
LD50 Karpas [4]: 0.46 µM

SMILES: Cc1ccc(S(=O)(=O)N[C@@H](CC(=O)NOC(C)(C)C)C(=O)N[C@@H](C)C(=O)NCc2cccc3ccccc23)cc1 [DPLG-2091, (S)—N4-(tert-butoxy)-2-((4-methylphenyl)sulfonamido)-N1-((S)-1-((naphthalen-1-ylmethyl)amino)-1-oxopropan-2-yl)succinamide]
LD50 [5]: 5.3 µM
IC50 [8]: 26 nM
SI (selectivity index) [8]: 88
IC50 [16]: 2300 nM
IC50 [3]: 64 nM
LD50 Karpas [4]: 5.3 µM

SMILES: C[C@H](NC(=O)[C@H](CC(=O)NOC(C)(C)C)NC(=O)C(F)(F)F)C(=O)NCc1cccc2ccccc12 [DPLG-2106, (S)—N4-(tert-butoxy)-N1-((S)-1-((naphthalen-1-ylmethyl)amino)-1-oxopropan-2-yl)-2-(2,2,2-trifluoroacetamido)succinamide]
LD50 [5]: 7.8 µM
IC50 [3]: 1460 nM
LD50 Karpas [4]: 7.8 µM

SMILES: C[C@H](NC(=O)[C@H](CC(=O)NOC(C)(C)C)NC(=O)CCCc1ccccc1)C(=O)NCc1cccc2ccccc12 [DPLG-2127, (S)—N4-(tert-butoxy)-N1-((S)-1-((naphthalen-1-ylmethyl)amino)-1-oxopropan-2-yl)-2-(4-phenylbutanamido)succinamide]
LD50 [5]: >100 µM
IC50 [3]: 160 nM
LD50 Karpas [4]: >100 µM

SMILES: C[C@H](NC(=O)[C@H](CC(=O)NC1COC1)NC(=O)CCc1ccccc1)C(=O)NCc1cccc2ccccc12 [DPLG-2130, (S)—N1-((S)-1-((naphthalen-1-ylmethyl)amino)-1-oxopropan-2-yl)-N4-(oxetan-3-yl)-2-(3-phenylpropanamido)succinamide]
LD50 [5]: 67.8 µM
IC50 [3]: 1130 nM
LD50 Karpas [4]: 67.8 µM

SMILES: COC[C@H](NC(=O)[C@H](CC(=O)NOC(C)(C)C)NS(=O)(=O)c1ccc(C)cc1)C(=O)NCc1cccc2ccccc12 [DPLG-2150, (S)—N^4-(tert-butoxy)-N^1—((S)-3-methoxy-1-((naphthalen-1-ylmethyl)amino)-1-oxopropan-2-yl)-2-((4-methylphenyl)sulfonamido)succinamide]
LD50 [5]: 0.8 µM
IC50 [8]: 4.4 nM
SI (selectivity index) [8]: 139
IC50 [16]: 610 nM
IC50 [3]: 9 nM
LD50 Karpas [4]: 0.8 µM

SMILES: COC[C@H](NC(=O)[C@H](CC(=O)NOC(C)(C)C)NC(=O)CCc1ccccc1)C(=O)NCc1cccc(OC)c1 [DPLG-2160, (S)—N^4-(tert-butoxy)-N^1—-((S)-3-methoxy-1-((3-methoxybenzyl)amino)-1-oxopropan-2-yl)-2-(3-phenylpropanamido)succinamide]
LD50 [5]: 0.05 µM
IC50 [8]: 9.4 nM
SI (selectivity index) [8]: 10
IC50 [16]: 98 nM
IC50 [3]: 19 nM
LD50 Karpas [4]: 0.05 µM

kinact/KI [17]: 0.2 M⁻¹ s⁻¹
kinact/KI ([18]; Hu20S β5i): 129 M⁻¹ s⁻¹
kinact ([18]; Hu20S β5i): 0.00025 s⁻¹
Ki ([18]; Hu20S β5i, read-out: KI): 2000 nM
SMILES: O=c1oc(-c2ccccn2)ns1 [HT1043]

kinact/KI [17]: 10.1 M⁻¹ s⁻¹
kinact/KI ([18]; Hu20S β5i): 1010 M⁻¹ s⁻¹
kinact ([18]; Hu20S β5i): 0.00077 s⁻¹
Ki ([18]; Hu20S β5i, read-out: KI): 760 nM
SMILES: Cc1sc(-c2nsc(=O)o2)cc1[N+](=O)[O-] [HT1171]

Ki [18]: 1400 nM
SMILES: O=c1oc(-c2ccc(-c3ccccc3)cc2)ns1 [HT2004]

SMILES: COc1ccc(C[C@H](NC(=O)[C@H](C)NC(=O)CN2CCOCC2)C(=O)N[C@@H](Cc2ccccc2)C(=O)[C@]2(C)CO2)cc1 [ONX 0914]
effect on cytokines analyzed [19]: inhibitory
